Among the data in patent US20240287078A1, “QUINAZOLINE DERIVATIVES USEFUL AS RAS INHIBITORS” (Redx Pharma PLC, priority 2021, published 2024) are inhibition and IC50 values, retold here.

Format in all cases: biochemical
One test deals with T1, KRAS G12D (Homo sapiens, UniProt P01116, G12D).
T1 construct: aa1-188 KRAS WT, HRAS WT, NRAS WT, or KRAS containing the containing the G12D, G13D or Q61H amino acid substitutions
In words: HTRF nucleotide exchange assay (NEA), KRAS G12D. As to conditions: recombinant human KRAS aa1-188 G12D, 2 nM, 60 min compound incubation, EDA-GTP-DY647P1; for inhibition at 10 µM: 1 h. The method, then:
(§1) HTRF Nucleotide Exchange Assay Method
(§2) The capacity of compounds to bind KRAS G12D, other KRAS mutants and wildtype RAS isoforms was quantified using a HTRF nucleotide exchange assay. Recombinant human RAS protein (2 nM; aa1-188 KRAS WT, HRAS WT, NRAS WT, or KRAS containing the containing the G12D, G13D or Q61H amino acid substitutions, or 4 nM KRAS; aa1-188 containing the G12V, G12C, G12A or G12S amino acid substitution, an N-terminal 6×His-tag and leader sequence), and 2 nM Europium-labeled anti-6×His antibody were mixed in assay buffer (10 mM HEPES pH7.3, 150 mM NaCl, 5 mM MgCl2, 0.05% BSA, 0.0025% NP-40 and 100 mM KF) with various concentrations of compound in a 384-well plate and a volume of 5 uL. After a 60-minute incubation at room temperature, Sul of 200 nM EDA-GTP-DY647P1 (diluted in assay buffer) was added to the plate. Following 30-minute incubation at room temperature, time-resolved fluorescence was measured on a PerkinElmer Envision plate reader. DMSO (0.3%) and unlabeled GDP (1 μM) or equivalent tool compound were used to generate the Max and Min assay signals, respectively. Data was analysed using a four-parameter logistic model to calculate IC50 values, with at least two independent replicates were performed for each compound.
(In TR-FRET formats the signal depends on donor and acceptor labels being close together.)

The target of the next test is T2, KRAS WT (Homo sapiens, UniProt P01116).
T2 construct: aa1-188 KRAS WT, HRAS WT, NRAS WT
Kind of test: HTRF nucleotide exchange assay (NEA), KRAS WT. As to conditions: recombinant human KRAS WT aa1-188, 2 nM, 60 min compound incubation, EDA-GTP-DY647P1; for inhibition at 10 µM: 1 h. The method, then:
as §1, §2

For the next test, the target named is T3, KRAS G12S (Homo sapiens, UniProt P01116, G12S).
T3 construct: 4 nM KRAS; aa1-188 containing the G12V, G12C, G12A or G12S amino acid substitution
In words: HTRF nucleotide exchange assay (NEA), KRAS G12S. As to conditions: 1 h; recombinant human KRAS aa1-188 G12S, 4 nM; 60 min compound incubation, EDA-GTP-DY647P1. The method, then:
as §1, §2

A further test addresses T4, KRAS G13D (Homo sapiens, UniProt P01116, G13D).
T4 construct: aa1-188 KRAS WT, HRAS WT, NRAS WT, or KRAS containing the containing the G12D, G13D or Q61H amino acid substitutions
Kind of test: HTRF nucleotide exchange assay (NEA), KRAS G13D. As to conditions: 1 h; recombinant human KRAS aa1-188 G13D, 2 nM; 60 min compound incubation, EDA-GTP-DY647P1. As to the method:
as §1
The capacity of compounds to bind KRAS G12D, other KRAS mutants and wildtype RAS isoforms was quantified using a HTRF nucleotide exchange assay. […] After a 60-minute incubation at room temperature, Sul of 200 nM EDA-GTP-DY647P1 (diluted in assay buffer) was added to the plate. Following 30-minute incubation at room temperature, time-resolved fluorescence was measured on a PerkinElmer Envision plate reader. DMSO (0.3%) and unlabeled GDP (1 μM) or equivalent tool compound were used to generate the Max and Min assay signals, respectively. Data was analysed using a four-parameter logistic model to calculate IC50 values, with at least two independent replicates were performed for each compound.

Each structure is given as a SMILES string.

T3 sequence (P01116 1-188 isoform P01116-2 G12S): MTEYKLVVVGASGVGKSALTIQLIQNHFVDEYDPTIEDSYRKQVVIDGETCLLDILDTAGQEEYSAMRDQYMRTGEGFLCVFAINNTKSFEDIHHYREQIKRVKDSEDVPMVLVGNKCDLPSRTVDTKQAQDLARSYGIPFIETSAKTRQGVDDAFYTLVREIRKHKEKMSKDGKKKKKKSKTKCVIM
T2 sequence (P01116 1-188 isoform P01116-2): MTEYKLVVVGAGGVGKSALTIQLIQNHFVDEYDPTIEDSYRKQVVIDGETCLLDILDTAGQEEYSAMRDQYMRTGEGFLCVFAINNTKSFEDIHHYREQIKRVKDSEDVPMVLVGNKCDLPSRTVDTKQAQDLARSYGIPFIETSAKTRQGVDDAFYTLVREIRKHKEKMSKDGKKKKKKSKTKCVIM
T1 sequence (P01116 1-188 isoform P01116-2 G12D): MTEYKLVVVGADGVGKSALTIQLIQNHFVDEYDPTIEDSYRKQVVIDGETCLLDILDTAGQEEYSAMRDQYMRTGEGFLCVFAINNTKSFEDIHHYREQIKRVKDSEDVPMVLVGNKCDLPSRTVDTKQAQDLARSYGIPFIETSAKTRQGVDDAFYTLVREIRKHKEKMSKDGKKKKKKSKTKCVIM
T4 sequence (P01116 1-188 isoform P01116-2 G13D): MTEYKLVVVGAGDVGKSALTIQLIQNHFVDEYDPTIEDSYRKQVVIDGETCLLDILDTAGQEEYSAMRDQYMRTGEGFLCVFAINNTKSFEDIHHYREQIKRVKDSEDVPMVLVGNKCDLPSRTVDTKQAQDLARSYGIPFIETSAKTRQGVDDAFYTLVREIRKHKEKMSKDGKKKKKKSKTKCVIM

For orientation: inhibition means the drop in the measured response relative to a control, in per cent. By IC50 is commonly meant the concentration that gives 50% inhibition. Take `COc1ccc(Cl)cc1-c1ccc2c(N3CCCOCC3)nc(OCC34CCCN3CCC4)nc2c1C` [Example 16, 4-[7-(5-chloro-2-methoxy-phenyl)-2-(1,2,3,5,6,7-hexahydropyrrolizin-8-ylmethoxy)-8-methyl-quinazolin-4-yl]-1,4-oxazepane]: the inhibition at 10 µM on KRAS G12D was 10 to 49%. Besides, on KRAS WT, the concentration for half-maximal inhibition (IC50) was in the range of 0.1 to 10 µM.
On to `Cc1c(-c2cc(O)cc3ccccc23)ccc2c(N3CCn4ccnc4C3)nc(OCC34CCCN3CCC4)nc12` [Example 9, 4-[4-(6,8-dihydro-5H-imidazo[1,2-a]pyrazin-7-yl)-2-(1,2,3,5,6,7-hexahydropyrrolizin-8-ylmethoxy)-8-methyl-quinazolin-7-yl]naphthalen-2-ol], for which the inhibition at 10 µM at KRAS G12D, on KRAS WT and on KRAS G12S was 10 to 49% each time.
Consider `Cc1ccc2[nH]ncc2c1-c1ccc2c(N3CCCOCC3)nc(OCC34CCCN3CCC4)nc2c1C` [Example 18, 4-[2-(1,2,3,5,6,7-hexahydropyrrolizin-8-ylmethoxy)-8-methyl-7-(5-methyl-1H-indazol-4-yl)quinazolin-4-yl]-1,4-oxazepane], for which the inhibition at 10 µM at KRAS G12D and at KRAS WT was 10 to 49% throughout.
As for `Cc1c(-c2cc(O)cc3ccccc23)ccc2c(N3CCOCCC3=O)nc(OCC34CCCN3CCC4)nc12` [Example 4, 4-[2-(1,2,3,5,6,7-hexahydropyrrolizin-8-ylmethoxy)-7-(3-hydroxy-1-naphthyl)-8-methyl-quinazolin-4-yl]-1,4-oxazepan-5-one], the inhibition at 10 µM on KRAS G12D, at KRAS WT and on KRAS G13D was 10 to 49% throughout.
In the case of `Cc1c(-c2cc(O)cc3ccccc23)ccc2c(N3CCn4cncc4C3)nc(OCC34CCCN3CCC4)nc12` [Example 8, 4-[4-(6,8-dihydro-5H-imidazo[1,5-a]pyrazin-7-yl)-2-(1,2,3,5,6,7-hexahydropyrrolizin-8-ylmethoxy)-8-methyl-quinazolin-7-yl]naphthalen-2-ol], the inhibition at 10 µM on KRAS G12D, on KRAS WT and at KRAS G12S was 10 to 49% throughout.
For `Cc1nc(-c2ccc3c(N4CCCOCC4)nc(OCC45CCCN4CCC5)nc3c2C)c2ccccc2n1` [Example 14, 4-[2-(1,2,3,5,6,7-hexahydropyrrolizin-8-ylmethoxy)-8-methyl-7-(2-methylquinazolin-4-yl)quinazolin-4-yl]-1,4-oxazepane], the inhibition at 10 µM on KRAS G12D and at KRAS WT was 10 to 49% throughout.
Turning to `Cc1c(-c2nc(N)cc3ccccc23)ccc2c(N3CCCOCC3)nc(OCC34CCCN3CCC4)nc12` [Example 23, 1-[2-(1,2,3,5,6,7-hexahydropyrrolizin-8-ylmethoxy)-8-methyl-4-(1,4-oxazepan-4-yl)quinazolin-7-yl]isoquinolin-3-amine], the inhibition at 10 µM at KRAS G12D and on KRAS WT was 10 to 49% in each case.
Consider `Cc1c(-c2cc(O)cc3ccccc23)ccc2c(N3CCc4[nH]ncc4C3)nc(OCC34CCCN3CCC4)nc12` [Example 10, 4-[2-(1,2,3,5,6,7-hexahydropyrrolizin-8-ylmethoxy)-8-methyl-4-(1,4,6,7-tetrahydropyrazolo[4,3-c]pyridin-5-yl)quinazolin-7-yl]naphthalen-2-ol], for which the inhibition at 10 µM on KRAS G12D and at KRAS WT was 10 to 49% throughout.
For `Cc1c(-c2ncnc3ccc(C#N)cc23)ccc2c(N3CCCOCC3)nc(OCC34CCCN3CCC4)nc12` [Example 12, 4-[2-(1,2,3,5,6,7-hexahydropyrrolizin-8-ylmethoxy)-8-methyl-4-(1,4-oxazepan-4-yl)quinazolin-7-yl]quinazoline-6-carbonitrile], the inhibition at 10 µM on KRAS G12D and on KRAS WT was 10 to 49% each time.
In the case of `Cc1c(-c2cccc3sc(N)nc23)ccc2c(N3CCCOCC3)nc(OCC34CCCN3CCC4)nc12` [Example 13, 4-[2-(1,2,3,5,6,7-hexahydropyrrolizin-8-ylmethoxy)-8-methyl-4-(1,4-oxazepan-4yl)quinazolin-7-yl]-1,3-benzothiazol-2-amine], the half-inhibitory concentration (IC50) on KRAS G12D and at KRAS WT was 0.1 to 10 µM each time.
Turning to `Cc1c(-c2n[nH]c3ccccc23)ccc2c(N3CCCOCC3)nc(OCC34CCCN3CCC4)nc12` [Example 20, 4-[2-(1,2,3,5,6,7-hexahydropyrrolizin-8-ylmethoxy)-7-(1H-indazol-3-yl)-8-methyl-quinazolin-4-yl]-1,4-oxazepane], the inhibition at 10 µM on KRAS G12D and at KRAS WT was 10 to 49% throughout.
As to `Cc1c(-c2cc(O)cc3ccccc23)ccc2c(N3CCc4cn[nH]c4C3)nc(OCC34CCCN3CCC4)nc12` [Example 11, 4-[2-(1,2,3,5,6,7-hexahydropyrrolizin-8-ylmethoxy)-8-methyl-4-(1,4,5,7-tetrahydropyrazolo[3,4-c]pyridin-6-yl)quinazolin-7-yl]naphthalen-2-ol], the inhibition at 10 µM at KRAS G12D and at KRAS WT was 10 to 49% throughout.
As to `Cc1c(-c2c[nH]nc2C(F)(F)F)ccc2c(N3CCCOCC3)nc(OCC34CCCN3CCC4)nc12` [Example 17, 4-[2-(1,2,3,5,6,7-hexahydropyrrolizin-8-ylmethoxy)-8-methyl-7-[3-(trifluoromethyl)-1H-pyrazol-4-yl]quinazolin-4-yl]-1,4-oxazepane], the inhibition at 10 µM at KRAS G12D and at KRAS WT was 10 to 49% throughout.
Regarding `Cc1c(-c2cc(O)cc3ccccc23)ccc2c(N3CCCOCC3=O)nc(OCC34CCCN3CCC4)nc12` [Example 5, 4-[2-(1,2,3,5,6,7-hexahydropyrrolizin-8-ylmethoxy)-7-(3-hydroxy-1-naphthyl)-8-methyl-quinazolin-4-yl]-1,4-oxazepan-3-one], the inhibition at 10 µM at KRAS G12D, at KRAS WT and on KRAS G13D was 10 to 49% throughout.
With `Cc1c(-c2cccc3cnn(C)c23)ccc2c(N3CCCOCC3)nc(OCC34CCCN3CCC4)nc12` [Example 21, 4-[2-(1,2,3,5,6,7-hexahydropyrrolizin-8-ylmethoxy)-8-methyl-7-(1-methylindazol-7-yl)quinazolin-4-yl]-1,4-oxazepane], the inhibition at 10 µM at KRAS G12D and on KRAS WT was 10 to 49% throughout.
Turning to `Cc1c(-c2cc(O)cc3ccccc23)ccc2c(N3CCn4nccc4C3)nc(OCC34CCCN3CCC4)nc12` [Example 7], the inhibition at 10 µM at KRAS G12D, on KRAS WT and at KRAS G12S was 10 to 49% throughout.
Regarding `Cc1c(-c2cccc3[nH]ncc23)ccc2c(N3CCCOCC3)nc(OCC34CCCN3CCC4)nc12` [Example 19, 4-[2-(1,2,3,5,6,7-hexahydropyrrolizin-8-ylmethoxy)-7-(1H-indazol-4-yl)-8-methyl-quinazolin-4-yl]-1,4-oxazepane], the inhibition at 10 µM on KRAS G12D and on KRAS WT was 10 to 49% throughout.
As for `COc1ccc(C(F)(F)F)cc1-c1ccc2c(N3CCCOCC3)nc(OCC34CCCN3CCC4)nc2c1C` [Example 15, 4-[2-(1,2,3,5,6,7-hexahydropyrrolizin-8-ylmethoxy)-7-[2-methoxy-5-(trifluoromethyl)phenyl]-8-methyl-quinazolin-4-yl]-1,4-oxazepane], the inhibition at 10 µM at KRAS G12D and on KRAS WT was 10 to 49% each time.
